Assay results as given in patent US20160046592A1, “PHARMACEUTICAL COMPOSITION FOR THE TREATMENT OF DIABETES” (Ajinomoto Co., Inc., priority 2013, published 2016).
Counter-ions that a name gives are not always drawn.

Biological target: T1, human GYS1 (glycogen synthase) (Homo sapiens, UniProt P13807)
T1 construct: made in house; host or cells: HEK293T
T1 sequence (P13807 1-737): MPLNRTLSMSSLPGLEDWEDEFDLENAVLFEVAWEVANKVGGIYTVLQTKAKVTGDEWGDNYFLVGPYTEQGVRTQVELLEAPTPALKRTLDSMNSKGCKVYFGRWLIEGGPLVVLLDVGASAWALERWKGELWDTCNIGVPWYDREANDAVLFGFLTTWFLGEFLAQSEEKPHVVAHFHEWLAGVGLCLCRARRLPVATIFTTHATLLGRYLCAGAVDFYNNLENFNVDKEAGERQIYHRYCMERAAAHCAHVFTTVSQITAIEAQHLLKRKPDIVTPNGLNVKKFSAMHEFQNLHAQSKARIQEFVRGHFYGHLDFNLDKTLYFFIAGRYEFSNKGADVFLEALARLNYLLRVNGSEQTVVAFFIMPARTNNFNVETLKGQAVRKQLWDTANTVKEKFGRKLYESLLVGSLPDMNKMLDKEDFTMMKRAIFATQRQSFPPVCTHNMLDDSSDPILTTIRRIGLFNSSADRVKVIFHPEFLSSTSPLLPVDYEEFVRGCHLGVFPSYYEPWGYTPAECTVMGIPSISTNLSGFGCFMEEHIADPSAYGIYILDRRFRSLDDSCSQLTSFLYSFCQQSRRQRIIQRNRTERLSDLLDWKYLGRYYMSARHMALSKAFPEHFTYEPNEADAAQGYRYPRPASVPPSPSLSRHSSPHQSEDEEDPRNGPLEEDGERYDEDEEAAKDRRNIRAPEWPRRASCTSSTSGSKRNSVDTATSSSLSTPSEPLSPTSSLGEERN
Experiment: Measurement of glycogen synthase activity
Format: biochemical
Details: concentration causing 50% increase in relative activity; 100% = compound of Example 1 of WO/2011/058154 at 10 μM; 10 mM Glucose-6-phosphate; 37° C. for 25 minutes (Examples 1 to 61 and 67 to 82) or 20 minutes (Examples 62 to 66); absorbance at 340 nm
How it was run: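 Human GYS1 from transfected HEK293T cells (re-dissolved 16000×g pellet) was reacted at 37 °C for 25 or 20 min in glycylglycine pH 7.3 with glucose-6-phosphate, glycogen and UDP-glucose. PK/LDH-coupled NADH read-out at 340 nm; EC50 from activity relative to a reference activator at 10 μM final (100%).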

| EC50 | SMILES |
| --- | --- |
| 17 nM | COC[C@@H]1CC[C@@H](C(=O)O)N1C(=O)c1cccc(COc2ccc(-c3cc(F)c(F)cc3SC)cc2)c1 [Example 62, (2S,5S)-1-[3-[[4-(4,5-Difluoro-2-methylsulfanyl-phenyl)phenoxy]methyl]benzoyl]-5-(methoxymethyl)pyrrolidine-2-carboxylic Acid] |
| 17 nM | CSc1cc(F)c(F)cc1-c1ccc(OCc2cccc(C(=O)N3C[C@H](N(C)C)C[C@H]3C(=O)O)c2)cc1 [Example 63, (2S,4R)-1-[3-[[4-(4,5-Difluoro-2-methylsulfanyl-phenyl)phenoxy]methyl]benzoyl]-4-(dimethylamino)pyrrolidine-2-carboxylic Acid Trifluoroacetate] |
